Tests used:
human GnRH receptors = target: T1, human GnRH receptors (Homo sapiens, UniProt P30968); assay: Human GnRH receptor functional assay (intracellular calcium release); format: cell-based; details: CHO-K1 cells expressing human GnRH receptors; block of GnRH (EC80)-induced intracellular calcium release; 20 minutes pre-incubation
T1 construct: expressed in transfected cells; host or cells: CHO-K1
T1 sequence (P30968 1-328): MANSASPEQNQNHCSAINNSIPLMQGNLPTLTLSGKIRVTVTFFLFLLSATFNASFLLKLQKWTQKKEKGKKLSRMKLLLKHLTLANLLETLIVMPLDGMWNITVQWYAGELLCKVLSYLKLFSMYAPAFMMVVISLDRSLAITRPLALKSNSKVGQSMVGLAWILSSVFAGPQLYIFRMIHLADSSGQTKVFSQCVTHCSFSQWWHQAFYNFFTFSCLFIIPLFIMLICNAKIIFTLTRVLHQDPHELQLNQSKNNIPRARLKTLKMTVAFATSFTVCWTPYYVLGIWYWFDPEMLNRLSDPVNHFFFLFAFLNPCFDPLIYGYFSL
Experimental: Human GnRH Receptor Functional Assay
GnRH-receptor antagonists may be functionally assessed by measurement of change in intracellular calcium levels induced by Gαq mediated increase in IP3 levels. The ability of compounds to block the intracellular release of calcium by GnRH in CHO-K1 cells expressing human GnRH receptors is determined as a measure of the compound's antagonist activity in vitro. Approximately 30,000 cells per assay well (half well 96 well assay plate—Corning) are seeded in normal culture medium. Twenty four hours after seeding the cells are loaded with a calcium sensitive fluorescent dye by replacing the culture medium with assay buffer (1× Hanks buffered saline, 25 mM HEPES, 0.1% w/v fatty acid free BSA, pH7.4) containing 2.5 mM probenecid and 1× Calcium Plus reagent (Molecular) Devices. Cells are incubated at 37° C. for 1 hour to allow for dye uptake. To test for antagonist activity, compounds at a concentration range between 0.1 nM-3.2 μM are added to the assay wells and allowed to incubate 20 minutes prior to stimulation with GnRH. After incubation with test compounds the assay plate is placed in a Flexstation II (Molecular Devices) and GnRH is added at the determined EC80 concentration (final). Ligand-dependent changes in intracellular calcium levels are determined by measuring changes in fluorescence of the dye at […] following excitation at 485 nm. Percentage inhibition curves are plotted using 4-parameter fit algorithm and IC50 values calculated for each compound.

SMILES	IC50 (human GnRH receptors)	melting point
COc1cc2c(cc1Oc1nc(C(=O)Nc3c(OC)nc(NCCNC(C)C)nc3OC)cs1)C(C)(C)CC2 [Example 24, N-(2-(2-(Isopropylamino)ethylamino)-4,6-dimethoxypyrimidin-5-yl)-2-(6-methoxy-3,3-dimethyl-2,3-dihydro-1H-inden-5-yloxy)thiazole-4-carboxamide]	4 nM	
COc1nc(NCCCN2CCOCC2)nc(OC)c1NC(=O)c1coc(Oc2cccc(C(C)(C)C)c2)n1 [Example 1, 2-(3-tert-butylphenoxy)-N-(4,6-dimethoxy-2-(3-morpholinopropylamino)pyrimidin-5-yl)oxazole-4-carboxamide]		85 °C
COc1nc(NCCN(C)C)nc(OC)c1NC(=O)c1csc(Oc2cc(C(C)(C)C)ccc2C)n1 [Example 5, 2-(5-tert-Butyl-2-methylhenoxy)-N-(2-(2-(dimethylamino)ethylamino)-4,6-dimethoxypyrimidin-5-yl)thiazole-4-carboxamide]	193 nM	
COc1nc(NCCCN2CCOCC2)nc(OC)c1NC(=O)c1csc(Oc2cccc(C(C)(C)C)c2)n1 [Example 2, 2-(3-tert-butylphenoxy)-N-(4,6-dimethoxy-2-(3-morpholinopropylamino)pyrimidin-5-yl)thiazole-4-carboxamide]	485 nM	68 °C
